Experimental data: patent US7241863B2, “Human metabotropic glutamate receptor” (NPS Pharmaceuticals, Inc., priority 2003, dated 2007)

Assays:
Assay type in all cases: cell-based
[1] = biological target: T1, hCaR/hmGluR5d chimeric receptor (Homo sapiens, UniProt P41180); assay: Increases in intracellular calcium (Fluo3-AM, FLIPR) in HEK293 cells expressing the chimeric receptor; details: hCaR/hmGluR5d expressed in HEK293 cells, FIG. 5
T1 construct: expressed in transfected cells; host or cells: HEK293 cells (ATCC CRL 1573) stably transfected with phCaR/hmGluR5d(Hyg+)
T1 sequence (P41180 with tags, fused parts or gaps): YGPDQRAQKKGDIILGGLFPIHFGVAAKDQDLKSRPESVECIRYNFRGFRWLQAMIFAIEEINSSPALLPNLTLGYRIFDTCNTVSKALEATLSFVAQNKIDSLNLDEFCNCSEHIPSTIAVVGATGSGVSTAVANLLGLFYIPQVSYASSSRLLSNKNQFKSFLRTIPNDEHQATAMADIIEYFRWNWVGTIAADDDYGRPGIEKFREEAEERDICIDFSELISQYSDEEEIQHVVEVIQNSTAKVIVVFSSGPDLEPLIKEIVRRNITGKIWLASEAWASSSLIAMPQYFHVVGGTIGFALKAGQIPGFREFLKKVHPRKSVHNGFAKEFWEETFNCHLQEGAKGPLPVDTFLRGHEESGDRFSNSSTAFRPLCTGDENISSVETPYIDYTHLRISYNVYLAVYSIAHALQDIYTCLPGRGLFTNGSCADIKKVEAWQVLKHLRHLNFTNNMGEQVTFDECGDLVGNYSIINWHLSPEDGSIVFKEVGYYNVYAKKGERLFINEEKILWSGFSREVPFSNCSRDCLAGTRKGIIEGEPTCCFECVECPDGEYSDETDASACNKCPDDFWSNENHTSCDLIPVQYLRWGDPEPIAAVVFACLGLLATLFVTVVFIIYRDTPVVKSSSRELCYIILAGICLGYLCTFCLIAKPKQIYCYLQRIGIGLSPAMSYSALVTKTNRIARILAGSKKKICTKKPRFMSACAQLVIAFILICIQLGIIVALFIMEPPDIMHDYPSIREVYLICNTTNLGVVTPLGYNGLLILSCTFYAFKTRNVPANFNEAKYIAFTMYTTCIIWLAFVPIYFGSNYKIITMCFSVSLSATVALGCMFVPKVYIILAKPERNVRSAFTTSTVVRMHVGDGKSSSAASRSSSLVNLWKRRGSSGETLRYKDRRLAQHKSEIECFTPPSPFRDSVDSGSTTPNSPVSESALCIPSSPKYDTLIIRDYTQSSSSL
Protocol: This example provides a method for the production of stably transfected mammalian cell lines expressing the chimeric receptor hCaR/hmGluR5d, but is not meant to be limiting. Human embryonic kidney cells (293, ATCC, CRL 1573) are grown in a routine manner. Cells are plated in 10 cm cell-culture plates in Dulbecco's modified Eagle's medium (D-MEM) containing 10% fetal bovine serum (FBS) and 1×penicillin-streptomycin (Life Technologies) so that they are approximately 70% confluent after an overnight incubation. To prepare DNA for transfection, the plasmid phCaR/hmGluR5d(Hyg+) is precipitated with ethanol, rinsed and resuspended in sterile water at a concentration of 1 μg/μl. Ten micrograms of the plasmid DNA is incubated with the liposome formulation LipofectAMINE™ (Life Technologies) for 20 minutes in 1.6 mls of serum-free Opti-MEM (Life Technologies). […] Expression can also be assessed by Western blot analysis using the commercially available antibody Anti-Rat mGluR5, polyclonal (Upstate Biotechnology).
The chimeric receptor, hCaR/hmGluR5d, also mediates the stimulation of inositol phosphate (IP)/Ca^2+ signal transduction. […] After an additional 24 hour incubation, cells are loaded with the calcium indicator dye Fluo3-AM and increases in intracellular calcium in response to calcium are measured using an automated fluorescent imaging plate reader (FLIPR). […]

human mGluR5d receptor = biological target: T2, human mGluR5d receptor (Homo sapiens, UniProt P41594); assay: Xenopus oocyte expression assay, calcium-activated chloride current; details: for desensitization of evoked calcium-activated chloride currents: repeated application of 10-100 μM, Xenopus oocytes expressing hmGluR5d
T2 construct: expressed in transfected cells; host or cells: Xenopus laevis oocytes injected with cRNA transcribed from phmGluR5d(Hyg+)
T2 sequence (P41594 21-942 isoform P41594-3): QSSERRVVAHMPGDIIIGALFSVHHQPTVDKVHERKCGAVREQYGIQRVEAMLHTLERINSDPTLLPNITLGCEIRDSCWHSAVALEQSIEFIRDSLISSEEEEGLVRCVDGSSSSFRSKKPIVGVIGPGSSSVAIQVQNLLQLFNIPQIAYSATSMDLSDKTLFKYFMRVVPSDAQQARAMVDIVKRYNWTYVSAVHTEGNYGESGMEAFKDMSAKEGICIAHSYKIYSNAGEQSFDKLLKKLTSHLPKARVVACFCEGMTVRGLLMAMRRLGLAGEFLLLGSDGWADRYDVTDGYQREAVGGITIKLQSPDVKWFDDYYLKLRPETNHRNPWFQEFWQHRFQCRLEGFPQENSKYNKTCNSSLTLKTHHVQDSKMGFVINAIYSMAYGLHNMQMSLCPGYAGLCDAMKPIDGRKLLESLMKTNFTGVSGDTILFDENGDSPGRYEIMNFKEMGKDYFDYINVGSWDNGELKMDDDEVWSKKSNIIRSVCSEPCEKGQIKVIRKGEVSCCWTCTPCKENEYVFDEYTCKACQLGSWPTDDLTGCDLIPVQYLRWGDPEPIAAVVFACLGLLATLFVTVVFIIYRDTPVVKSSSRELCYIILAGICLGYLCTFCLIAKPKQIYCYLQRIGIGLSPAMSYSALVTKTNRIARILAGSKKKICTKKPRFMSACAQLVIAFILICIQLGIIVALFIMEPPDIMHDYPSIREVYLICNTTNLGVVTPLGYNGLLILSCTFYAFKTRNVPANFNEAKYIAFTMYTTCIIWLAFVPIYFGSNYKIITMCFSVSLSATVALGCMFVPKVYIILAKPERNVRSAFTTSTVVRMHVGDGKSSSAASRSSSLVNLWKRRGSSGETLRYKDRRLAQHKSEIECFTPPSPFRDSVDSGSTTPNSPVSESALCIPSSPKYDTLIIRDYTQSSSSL
Protocol: This example describes the activation of the novel hmGluRSd splice variant using a Xenopus oocyte expression assay. PhmGluR5d(Hyg+) DNA was linearized by restriction enzyme digestion, and capped sense-strand cRNA was synthesized by T7 RNA polymerase transcription (Ambion Message Machine Kit). In vitro-transcribed RNA was concentrated by ethanol precipitation and the size and integrity of the RNA was assessed on a denaturing agarose gel.
In vitro-transcribed RNA (˜10 ng) encoding the human mGluR5d receptor was injected into Xenopus Oocytes. Following injection, oocytes were incubated at 16° C. in MBS containing 1 mM CaCl2 for 2 to 7 days prior to electrophysiological recording. Following the incubation, the oocytes were voltage-clamped using standard electrophysiological techniques. […] Activation of the hmGluR5d receptor was detected by increases in the calcium-activated chloride current.
Test substances were applied by superfusion at a flow rate of about 5 ml/min. Receptor activation was determined by measuring the increase in calcium-activated chloride current (ICl) Increases in ICl were quantified by measuring the peak inward current stimulated by activating agent, relative to the holding current at […].

hmGluR5d receptor = biological target: T3, hmGluR5d receptor (Homo sapiens, UniProt P41594); assay: Increases in intracellular calcium (Fluo3-AM, FLIPR) in transfected HEK293 cells; details: hmGluR5d expressed in HEK293 cells, FIG. 4
T3 construct: The full-length human mGluR5d was then subcloned into the mammalian expression vector pcDNA3.1/Hygro(+) vector; expressed in transfected cells; host or cells: HEK293 cells (ATCC CRL 1573) transfected with phmGluR5d(Hyg+)
T3 sequence (P41594 21-942 isoform P41594-3): as above
Protocol: Human embryonic kidney cells (293, ATCC, CRL 1573) are grown in a routine manner. Cells are plated in 10 cm cell-culture plates in Dulbecco's modified Eagle's medium (D-MEM) containing 10% fetal bovine serum (FBS) and 1× penicillin-streptomycin (Life Technologies) so that they are approximately 70% confluent after an overnight incubation. To prepare DNA for transfection, the plasmid phmGluR5d(Hyg+) is precipitated with ethanol, rinsed and resuspended in sterile water at a concentration of 1 μg/μl. Ten micrograms of the plasmid DNA is incubated with the liposome formulation LipofectAMINE™ (Life Technologies) for 20 minutes in 1.6 mls of serum-free Opti-MEM (Life Technologies). After the room temperature incubation, 6.4 mls of Opti-MEM is added to the transfection mix. This solution is added to the cells which have been rinsed twice with 8 ml washes of Opti-MEM. The cells and transfection mix are incubated at 37° C. for 5 hours, at which time 8 mls of Opti-MEM/20% FBS is added to bring the FBS concentration to 10%. […] Expression of the novel human mGluR5d splice variant of the present invention in clonal cell lines or pools can be assessed by Northern blot analysis of human mGluR5d mRNA or functionally as in the above experiments by assessing increases in intracellular calcium in response to mGluR5 agonists. […]

Q: calcium was tested. Which “functional activation of the chimeric receptor (agonist)” value [1] did it give?
A: functional activation

Q: What does the source list for `N[C@@H](CCC(=O)O)C(=O)O` [L-glutamate]?
A: increase in calcium-activated chloride current (receptor activation) (human mGluR5d receptor; 100 μM, applied by superfusion, voltage-clamped Xenopus oocytes expressing hmGluR5d): reversible, oscillatory increases in the calcium-activated chloride current; desensitization of evoked calcium-activated chloride currents (human mGluR5d receptor): only minimally desensitized

Q: `N[C@H](C(=O)O)c1cc(O)cc(O)c1` [DHPG, (S)-3,5-dihydroxyphenylglycine] was tested. Which “functional activation of the receptor (agonist)” value (hmGluR5d receptor) did it give?
A: functional activation

Q: And the “desensitization of evoked calcium-activated chloride currents” value (human mGluR5d receptor)?
A: only minimally desensitized
